US7858800B2, “Biaryl derivatives” (Banyu Pharmaceutical Co., Ltd., priority 2004, dated 2010)

Columns and labels:
[1] = biological target: T1, human metabotropic glutamic acid receptor 1a (mGluR1a) (Homo sapiens, UniProt Q13255); assay: mGluR1-inhibiting action: calcium concentration in CHO cells expressing mGluR1a (FLIPR); assay type: cell-based; conditions: suppression of rise in calcium raised by 10 μM glutamic acid, test compound added 5 minutes before agonist
T1 construct: expressed in transfected cells
Protocol: cDNA of human metabotropic glutamic acid receptor 1a (mGluR1a) was transfected to CHO cells using Lipofectamine (manufactured by Gibco BRL) to give a strain which stably expresses mGluR1a. The CHO cells in which mGluR1a was expressed were incubated in a DMEM medium containing 10% of dialyzed fetal bovine serum, 1% of proline, 100 units/ml of penicillin, 0.1 mg/ml of streptomycin sulfate and 2 mM of glutamine.
On the day before the measurement, 4 μM Fluo-3 was incubated in a CO2 incubator for 1 hour to the CHO cells where mGluR1a was expressed being plated with 50,000 cells per well of a 96-well black plate (View Plate manufactured by Packard). After that, the cells were washed for four times with an HBSS solution containing 20 mM of HEPES and 2.5 mM of Probenecid and then calcium concentration in the cells was measured using a Fluorescence Imaging Plate Reader (FLIPR, manufactured by Molecular Device). Incidentally, the test compound and glutamic acid were prepared using an HBSS solution containing 20 mM HEPES and 2.5 mM Probenecid. The test compound was added before 5 minutes of the stimulation with an agonist and, with regard to the agonist, 10 μM glutamic acid was used.

Male ICR (CD-1) mice = assay: Suppressive action on autonomic momentum (behavior quantity) in mice increased by methamphetamine; assay type: in vivo; conditions: compound 10 mg/kg intraperitoneally 30 minutes before methamphetamine 2 mg/kg subcutaneous, behavior quantity during 60 minutes
Protocol: Suppressive Action of the Compound to Autonomic Momentum in Mice which Increases by Methamphetamine
Male ICR (CD-1) mice (20 to 40 g) were used and behavior quantity was measured using a behavior quantity measuring device (manufactured by Neuroscience) where movement of animals is perceived by an infrared sensor. A compound or an appropriate solvent was administered to a mouse and, after 30 minutes, a physiological saline solution or methamphetamine was administered. Behavior quantities immediately after that and until 60 minutes thereafter were measured. Difference between the behavior quantity of the methamphetamine-administered group and that of the solvent-administered group during the measuring period was defined as 100% and evaluation was conducted by expressing the inhibitory % in behavior quantity of the test-compound-administered group.

rats = assay: Suppressive action on pre-pulse inhibition (PPI) decreased by methamphetamine, startle reaction of rats; assay type: in vivo, rat; conditions: compound orally 1 to 10 mg/kg 30 minutes before methamphetamine 3 mg/kg, significant suppressive action on decreased PPI
Protocol: Suppressive Action of the Compound to Pre-Pulse Inhibition which Decreases by Methamphetamine)
Investigation was also carried out in a test system of a pre-pulse inhibition where action of antipsychotic agents is able to be specifically detected. A startle reaction being stimulated by combining sonic stimulations of […] and 72 dB (pre-pulse) prior to pulse stimulation and startle reaction to sonic stimulation of 120 dB (pulse stimulation) in the presence of a back sound of 60 dB was measured using a startle reaction measuring device which perceives the body movement of rats (manufactured by San Diego Instrument). The compound of the present invention or an appropriate solvent was administered to a rat and, after 30 minutes, a physiological saline solution of 3 mg/kg of methamphetamine was administered whereupon measurement of a startle reaction was carried out. The startle reactions upon the pulse stimulation and in the presence of pre-pulse were defined as A and B, respectively and values of pre-pulse inhibition (hereinafter, referred to as PPI) were calculated from the following formula.
Method for calculation of PPI: PPI(%)=100×(A−B)/A
When a pre-treatment with methamphetamine was conducted, the startle reaction attenuated to an extent of only about 20% whereby a reduction in pre-pulse inhibition was noted. In the present model, lowering of pre-pulse inhibition by methamphetamine tends to be recovered when a compound having an mGluR1 antagonistic action was orally administered (1 to 10 mg/kg) 30 minutes before the administration of methamphetamine.

T1 sequence (Q13255 19-1194): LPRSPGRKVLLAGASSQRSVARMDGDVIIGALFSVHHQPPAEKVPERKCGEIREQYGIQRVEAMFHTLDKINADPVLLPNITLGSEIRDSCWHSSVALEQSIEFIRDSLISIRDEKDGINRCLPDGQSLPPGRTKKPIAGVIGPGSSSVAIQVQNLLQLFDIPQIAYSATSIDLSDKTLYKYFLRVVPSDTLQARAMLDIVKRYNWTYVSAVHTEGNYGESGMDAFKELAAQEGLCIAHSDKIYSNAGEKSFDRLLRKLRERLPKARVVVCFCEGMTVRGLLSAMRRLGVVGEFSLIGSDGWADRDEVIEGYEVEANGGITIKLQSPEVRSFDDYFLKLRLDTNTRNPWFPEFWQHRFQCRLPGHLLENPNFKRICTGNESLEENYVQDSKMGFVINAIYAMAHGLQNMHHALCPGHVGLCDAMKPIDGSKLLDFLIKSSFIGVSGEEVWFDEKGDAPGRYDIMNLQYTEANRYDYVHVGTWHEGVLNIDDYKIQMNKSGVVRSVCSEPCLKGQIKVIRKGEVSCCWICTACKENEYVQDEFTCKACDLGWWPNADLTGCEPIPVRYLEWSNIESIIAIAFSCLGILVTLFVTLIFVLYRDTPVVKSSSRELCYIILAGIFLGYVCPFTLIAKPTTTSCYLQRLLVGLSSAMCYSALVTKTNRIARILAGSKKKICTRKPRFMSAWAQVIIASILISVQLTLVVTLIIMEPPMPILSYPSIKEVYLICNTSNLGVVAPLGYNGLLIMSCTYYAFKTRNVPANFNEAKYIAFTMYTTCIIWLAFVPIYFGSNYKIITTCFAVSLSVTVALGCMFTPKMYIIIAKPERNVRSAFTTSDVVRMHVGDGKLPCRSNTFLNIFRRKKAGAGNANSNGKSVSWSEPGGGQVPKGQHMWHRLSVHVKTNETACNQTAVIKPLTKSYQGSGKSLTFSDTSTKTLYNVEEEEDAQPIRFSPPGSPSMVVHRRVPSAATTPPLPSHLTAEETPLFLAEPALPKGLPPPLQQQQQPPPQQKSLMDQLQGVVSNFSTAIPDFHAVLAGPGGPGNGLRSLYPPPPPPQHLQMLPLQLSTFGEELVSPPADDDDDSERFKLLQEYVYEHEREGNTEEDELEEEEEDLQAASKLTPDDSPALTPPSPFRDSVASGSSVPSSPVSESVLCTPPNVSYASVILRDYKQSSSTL

IC50 [1] [nM]	SMILES	Motility Quantity (Suppressive %) (Male ICR (CD-1) mice) [%]	Inhibition Effect to PPI Disorder (rats)
6.7	Cc1c(C2=CCN(C(=O)OC(C)C)CC2)nnn1-c1cccnc1Cl [Example 42, Isopropyl 4-[1-(2-chloropyridin-3-yl)-5-methyl-1H-[1,2,3]-triazol-4-yl]-1,2,3,6-tetrahydropyridine-1-carboxylate]	>80	yes
6.8	Cc1c(C2=CCN(C(=O)OC(C)C)CC2)nnn1-c1ccc(F)nc1 [Example 43, Isopropyl 4-[1-(2-fluoropyridin-5-yl)-5-methyl-1H-[1,2,3]triazol-4-yl]-1,2,3,6-tetrahydropyridine-1-carboxylate]	>80	yes
	Cc1c(C2=CCN(C(=O)N(C)C(C)C)CC2)nnn1-c1cccnc1F [Example 82, 4-[1-(2-Fluoropyridin-3-yl)-5-methyl-1H-[1,2,3]-triazol-4-yl]-1,2,3,6-tetrahydropyridine-1-carboxylic acid isopropylmethylamide]		yes
	Cc1c(C2=CCN(C(=O)N(C)C(C)C)CC2)nnn1-c1cccnc1Cl [Example 84]	>80	
